Experimental data reported in paper PMC11046913, “Activation of retinoic acid-related orphan receptor γ(t) by parabens and benzophenone UV-filters” (Toxicology, 2022).
Where two headings read alike, the source gives them in different places.

How the values were obtained:
RORγ [1] = target: T1, RORγ (Mus musculus, UniProt P51450); assay: cell-based; type: cell-based; settings: for RORγ agonistic activity (in words): screening at 10 μM; for activation at 1 µM: read-out: % increase in RORγ activity (mean ± SD), individual agonist at 1 μM; for fold induction at 10 µM: read-out: RORγ-dependent transactivation compared to the DMSO vehicle control; for activation at 2.5 µM: read-out: % increase in RORγ activity (mean ± SD), individual agonist at 2.5 μM
T1 sequence (P51450 1-516): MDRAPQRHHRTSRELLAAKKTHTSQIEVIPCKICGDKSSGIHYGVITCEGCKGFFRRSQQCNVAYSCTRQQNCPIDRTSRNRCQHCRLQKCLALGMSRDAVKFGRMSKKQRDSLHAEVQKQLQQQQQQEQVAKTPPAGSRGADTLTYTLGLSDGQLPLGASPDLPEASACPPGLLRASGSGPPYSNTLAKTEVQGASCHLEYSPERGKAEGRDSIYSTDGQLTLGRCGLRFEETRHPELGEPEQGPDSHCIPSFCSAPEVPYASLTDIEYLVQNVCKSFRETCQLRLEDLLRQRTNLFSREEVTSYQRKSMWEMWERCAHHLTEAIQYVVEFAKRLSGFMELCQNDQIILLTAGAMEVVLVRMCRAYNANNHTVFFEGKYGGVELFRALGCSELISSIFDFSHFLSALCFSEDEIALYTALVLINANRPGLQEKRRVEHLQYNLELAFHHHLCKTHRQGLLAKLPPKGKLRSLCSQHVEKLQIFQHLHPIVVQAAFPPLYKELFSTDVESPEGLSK
Description: Both cell lines were cultured under standard conditions (37 °C, 5% CO2).

[2] = parameters: method as in Benson et al., 2005; Fernandez et al., 2002; settings: human; ref Benson et al., 2005; Fernandez et al., 2002; cited from earlier work
[3] = cited from earlier work
[4] = system: IL-17A mRNA in EL4 T-cells over expressing human RORγt; assay: IL-17A mRNA expression (qRT-PCR) in EL4 cells overexpressing human RORγt; type: cell-based, murine; settings: 5 h, PMA/ionomycin-stimulated
Description: (§1) EL4 cells were transfected with plasmid encoding the human variant of RORγt by electroporation and seeded into 12-well plates (500,000 cells and 1.6 μg plasmid in 2 mL cultivation medium per well). Transfection was performed using the NeonTM transfection system (Invitrogen, Carlsbad, CA, USA) as follows: 1.8 × 10^6 cells and 6 μg plasmid in 100 μL buffer R were exposed to one pulse (1080 V, 50 ms) utilizing a 100 μL gold tip. After incubation for 16 h, the cells were treated for 5 h with the indicated test compounds as well as PMA and ionomycin at a total concentration of 0.253 nM and 31.3 nM, respectively. Subsequently, cells were centrifuged at 200 g for 3 min and total RNA was isolated from the pellet with the RNeasy Mini Kit according to the manufacturer’s protocol (Qiagen, Venlo, Netherlands). Contamination with genomic DNA was prevented by on-column DNA digestion using DNase I (RNase-free, Qiagen). RNA (1 μg) was reverse transcribed to complementary DNA (cDNA) utilizing the Takara PrimeScript RT Reagent Kit, according to the manufacturer’s protocol (Takara Bio Inc., Kusatsu, Japan). Finally, quantitative polymerase chain reaction (qPCR) was performed using Kapa SYBER® Fast qPCR Master Mix (KAPA Biosystems, Wilmington, MA, USA) as described earlier ([Inderbinen et al., 2020]). The following primers were used: peptidylprolyl isomerase A (PPIA): forward 5’-[…]-3’, reverse 5’-[…]-3’; IL-17A: forward 5’-[…] CCAA-3’, reverse 5’-[…]-3’; IL-22: forward 5’-[…]-3’, reverse 5’-[…]-3’. Primer quality was verified by analysis of melting curves and inspection of the PCR product on an agarose gel (single band at the expected size of the amplified sequence). Resulting CT values were normalized to values of the endogenous control gene PPIA and compared to control according to the 2^−ΔΔCT method ([Schmittgen and Livak, 2008]).

[5] = system: IL-22 mRNA in EL4 T-cells over expressing human RORγt; assay: IL-22 mRNA expression (qRT-PCR) in EL4 cells overexpressing human RORγt; type: cell-based, murine; settings: 5 h, PMA/ionomycin-stimulated
Description: as §1

estrogenic activity = settings: cited from earlier work
RORγ [6] = target: T1, RORγ; settings: in presence of 1.25 μM SR2211, test compound at different concentrations
Description: The CHO RORγ Tet-on cell line used in this study is a well-established reporter gene system to assess RORγ agonists and antagonists. […] CHO RORγ Tet-on cells were seeded in 96-well plates at a density of 2000 cells/100 μL culture medium, followed by incubation overnight. Subsequently, the medium was renewed, and the respective test compound dissolved in dimethylsulfoxide (DMSO) was added to the wells using a HP D300 Digital Liquid Dispenser with T8 dispense heads (HP Inc., Palo Alto, CA, USA). […] Two hours later, RORγ expression was induced by adding doxycycline at 1 μM final concentration. All samples were adjusted to contain the same volume and concentration of DMSO. After 16 h of incubation, cells were washed with PBS, lysed with 20 μL Tropix lysis solution (Applied Biosystems, Foster City, CA, USA) containing 1 mM dithiothreitol and frozen at − 80 °C for at least 20 min. […] Measured values were normalized to values from control cells treated with DMSO vehicle control only and induced with doxycycline.
Cells were simultaneously exposed to SR2211 and a given test compound at different concentrations or vehicle control.

[7] = parameters: method as in CIR, 2008; settings: relatively long alkyl side chain; ref CIR, 2008; cited from earlier work
[8] = only at high micromolar concentrations, ref Charles and Darbre, 2009

Compound: COc1ccc(C(=O)c2ccccc2)c(O)c1 [benzophenone-3]
- RORγ agonistic activity (in words) (RORγ [1]): agonistic activity
- concentration in breast milk [2]: 779.9 ng/g milk
- concentration in serum [2]: 304 ng/mL
- concentration in urine [2]: 300 ng/mL
- skin penetration ([3]; human skin, ref Benson et al., 2005, Fernandez et al., 2002): penetrate the human skin efficiently

Compound: COc1ccc(C(=O)c2ccc(OC)cc2O)c(O)c1 [Benzophenone-6, benzophenone-6]
- activation at 1 µM (RORγ [1]): -1 ± 5%
- fold induction at 10 µM (RORγ [1]): > 1.5
- RORγ agonistic activity (in words) (RORγ [1]): agonistic activity

Compound: O=C(c1ccc(O)cc1O)c1ccc(O)cc1O [benzophenone-2]
- RORγ agonistic activity (in words) (RORγ [1]): agonistic activity

Compound: O=C(Oc1ccccc1)c1ccc(O)cc1 [Phenylparaben, phenylparaben]
- activation at 1 µM (RORγ [1]): 5 ± 2%
- fold induction at 10 µM (RORγ [1]): > 1.5

Compound: O=C(Nc1ccc(C(O)(C(F)(F)F)C(F)(F)F)cc1)c1ccccc1Cl [SR0987, reference compound]
- IL-17A transcription ([4]; 10 μM, vs vehicle control): efficient modulation
- IL-22 transcription ([5]; 10 μM, vs vehicle control): significantly increased transcription

Compound: O=C(c1ccccc1)c1ccc(O)cc1O [benzophenone-1]
- RORγ agonistic effect (in words, discussion) (RORγ [1]; micromolar concentrations): only weak RORγ agonistic effect

Compound: O=C(c1ccc(O)cc1)c1ccc(O)cc1O [2,4,4’-trihydroxybenzophenone]
- RORγ agonistic activity (in words) (RORγ [1]): agonistic activity
- estrogenic activity (estrogenic activity; ref Suzuki et al., 2005): weak estrogenic activity

Compound: O=c1c(-c2ccc(O)cc2)coc2cc(O)cc(O)c12 [genistein, reference compound]
- IL-17A transcription ([4]; 10 μM, vs vehicle control): efficient modulation
- IL-22 transcription ([5]; 10 μM, vs vehicle control): significantly increased transcription

Compound: O=C(c1ccc(O)cc1)c1ccc(O)cc1 [4,4’-dihydroxybenzophenone]
- RORγ agonistic activity (in words) (RORγ [1]): agonistic activity

Compound: O=C(OCc1ccccc1)c1ccc(O)cc1 [Benzylparaben, benzylparaben]
- activation at 1 µM (RORγ [1]): 13 ± 4%
- activation at 2.5 µM (RORγ [1]): 45 ± 2%
- fold induction at 10 µM (RORγ [1]): > 1.5
- IL-17A transcription ([4]; 10 μM, vs vehicle control): a trend was detected
- IL-22 transcription ([5]; 10 μM, vs vehicle control): tended to increase
- Reversal of the SR2211-mediated inhibition of RORγ transactivation (RORγ [6]): significant increase

Compound: Cc1ccc(OC(=O)c2ccccc2)cc1 [4-Methylphenylbenzoate]
- activation at 1 µM (RORγ [1]): 6 ± 9%
- RORγ agonistic activity (in words) (RORγ [1]): significant agonistic activity
- IL-17A transcription ([4]; 10 μM, vs vehicle control): did not significantly enhance
- IL-22 transcription ([5]; 10 μM, vs vehicle control): did not significantly enhance
- Reversal of the SR2211-mediated inhibition of RORγ transactivation (RORγ [6]): failed to do so

Compound: CCc1ccc(N(CC(C)C)S(=O)(=O)c2ccc(OCC3CCOCC3)c(CO)c2)cc1 [GSK2981278, reference compound]
- IL-17A transcription ([4]; 1 μM): efficient modulation
- IL-22 transcription ([5]; 1 μM): efficient modulation

Compound: O=C(OCc1ccccc1)c1ccccc1 [Benzylbenzoate]
- activation at 1 µM (RORγ [1]): 16 ± 12%
- RORγ agonistic activity (in words) (RORγ [1]): significant agonistic activity
- IL-17A transcription ([4]; 10 μM, vs vehicle control): did not significantly enhance
- IL-22 transcription ([5]; 10 μM, vs vehicle control): did not significantly enhance
- Reversal of the SR2211-mediated inhibition of RORγ transactivation (RORγ [6]): restore the suppressed RORγ activity in a concentration-dependent manner
- estrogenic activity (estrogenic activity; [8]): Estrogenic activity

Compound: O=C(OCc1ccccc1)c1ccccc1O [Benzylsalicylate]
- activation at 1 µM (RORγ [1]): 18 ± 3%
- RORγ agonistic activity (in words) (RORγ [1]): significant agonistic activity
- IL-17A transcription ([4]; 10 μM, vs vehicle control): did not significantly enhance
- IL-22 transcription ([5]; 10 μM, vs vehicle control): did not significantly enhance
- Reversal of the SR2211-mediated inhibition of RORγ transactivation (RORγ [6]): restore the suppressed RORγ activity in a concentration-dependent manner
- estrogenic activity (estrogenic activity; [8]): Estrogenic activity

Compound: COc1ccc(C(=O)c2ccc(C)cc2)c(O)c1 [Benzophenone-10, benzophenone-10]
- RORγ-dependent transactivation compared to the DMSO vehicle control (RORγ [1]; first screening, 10 μM): more than 1.5 fold
- activation at 1 µM (RORγ [1]): 15 ± 5%
- activation at 2.5 µM (RORγ [1]): 63 ± 4%
- RORγ agonistic activity (in words) (RORγ [1]): agonistic activity
- IL-17A transcription ([4]; 10 μM, vs vehicle control): elevated expression
- IL-22 transcription ([5]; 10 μM, vs vehicle control): tended to increase
- Reversal of the SR2211-mediated inhibition of RORγ transactivation (RORγ [6]): significant increase

Compound: CCCCCCCOC(=O)c1ccc(O)cc1 [Heptylparaben, heptylparaben]
- activation at 1 µM (RORγ [1]): 5 ± 5%
- fold induction at 10 µM (RORγ [1]): > 1.5

Compound: CCCCCCOC(=O)c1ccc(O)cc1 [Hexylparaben, hexylparaben]
- activation at 2.5 µM (RORγ [1]): 83 ± 8%
- fold induction at 10 µM (RORγ [1]): > 1.5
- IL-17A transcription ([4]; 10 μM, vs vehicle control): elevated expression
- IL-22 transcription ([5]; 10 μM, vs vehicle control): significantly increased transcription
- Reversal of the SR2211-mediated inhibition of RORγ transactivation (RORγ [6]): significant increase
- solubility [7]: reduced solubility

Compound: CCCCOC(=O)c1ccc(O)cc1 [Butylparaben, butylparaben]
- activation at 1 µM (RORγ [1]): 5 ± 4%
- fold induction at 10 µM (RORγ [1]): > 1.5

Compound: COc1ccc(C(=O)CC(=O)c2ccc(C(C)(C)C)cc2)cc1 [avobenzone]
- skin penetration ([3]; ref Simeoni et al., 2004, Weigmann et al., 2001): limited skin penetration

Compound: Cc1ccc(Sc2ccc(C(=O)c3ccccc3)cc2)cc1 [4-(4-methylphenylthio)benzophenone]
- RORγ agonistic activity (in words) (RORγ [1]): agonistic activity
